Laboratory results reported in patent US12590126B2, “Compounds for selective disruption of protein-protein interactions” (SyntheX, Inc., priority 2017, dated 2026).
Where no end group is shown, it is not given here. [ ]: non-standard residue; d: D form. The star is where a group is joined. C6_5FAM = 5-carboxyfluorescein (5FAM) label attached via a 6-carbon linker to the lysine epsilon amino group, O=C(NCCCCCC(=O)*)c1ccc2c(c1)C(=O)OC21c2ccc(O)cc2Oc2cc(O)ccc21; 2Nal = N[C@@H](Cc1ccc2ccccc2c1)C(=O)O; dNle = CCCC[C@@H](N)C(=O)O

What follows are substances tested on SSP-25 cells (assay: xCELLigence cell death assay in SSP-25 cells (cellular assay for RAD51 inhibition)). Conditions: concentration gradient added at 20 hour mark, only values with R^>0.85 shown.
Format: cell-based
Experimental: The efficacy of the peptides described herein was assessed by their ability to cause death in SSP-25 cells, which have amplification of RAD51 and are dependent on its activity.
First, 5,000 SSP25 cells were plated, and adherence and growth was measured for 20 hours using live measurements of current impedance through the plate using the xCELLigence™ instrument. At the 20 hour mark, a concentration gradient of each compound or a PBS control was added to the SSP-25 cells, which were cultured in […] RMPI media with 10% FBS. […] Only values with confidence and R^>0.85 are shown.

In order of falling IC50:
1. Ac-l{d-norLeucine}rsrrlvrGlrkrrrrrGΦ-NH2 [Compound 14]  3500 µM
2. Ac-lmrsvrlrvGlrr-NH2 (Ac-[dL][dM][dR][dS][dV][dR][dL][dR][dV]G[dL][dR][dR]-NH2; SMILES CSCC[C@@H](NC(=O)[C@@H](CC(C)C)NC(C)=O)C(=O)N[C@H](CCCNC(=N)N)C(=O)N[C@H](CO)C(=O)N[C@@H](C(=O)N[C@H](CCCNC(=N)N)C(=O)N[C@H](CC(C)C)C(=O)N[C@H](CCCNC(=N)N)C(=O)N[C@@H](C(=O)NCC(=O)N[C@H](CC(C)C)C(=O)N[C@H](CCCNC(=N)N)C(=O)N[C@H](CCCNC(=N)N)C(N)=O)C(C)C)C(C)C) [Compound 4]  67 µM
3. Ac-l{d-norLeucine}rsvrlr[d-norLeucine]GlrkrrrrrGΦ-NH2 (Ac-[dL][dNle][dR][dS][dV][dR][dL][dR][dNle]G[dL][dR][dK][dR][dR][dR][dR][dR]G[2Nal]-NH2; SMILES CCCC[C@@H](NC(=O)[C@@H](CCCNC(=N)N)NC(=O)[C@@H](CC(C)C)NC(=O)[C@@H](CCCNC(=N)N)NC(=O)[C@H](NC(=O)[C@@H](CO)NC(=O)[C@@H](CCCNC(=N)N)NC(=O)[C@@H](CCCC)NC(=O)[C@@H](CC(C)C)NC(C)=O)C(C)C)C(=O)NCC(=O)N[C@H](CC(C)C)C(=O)N[C@H](CCCNC(=N)N)C(=O)N[C@H](CCCCN)C(=O)N[C@H](CCCNC(=N)N)C(=O)N[C@H](CCCNC(=N)N)C(=O)N[C@H](CCCNC(=N)N)C(=O)N[C@H](CCCNC(=N)N)C(=O)N[C@H](CCCNC(=N)N)C(=O)NCC(=O)N[C@@H](Cc1ccc2ccccc2c1)C(N)=O) [Compound 16]  43 µM
4. Ac-lvrsvGlrrrrrrrr-NH2 (Ac-[dL][dV][dR][dS][dV]G[dL][dR][dR][dR][dR][dR][dR][dR][dR]-NH2; SMILES CC(=O)N[C@H](CC(C)C)C(=O)N[C@@H](C(=O)N[C@H](CCCNC(=N)N)C(=O)N[C@H](CO)C(=O)N[C@@H](C(=O)NCC(=O)N[C@H](CC(C)C)C(=O)N[C@H](CCCNC(=N)N)C(=O)N[C@H](CCCNC(=N)N)C(=O)N[C@H](CCCNC(=N)N)C(=O)N[C@H](CCCNC(=N)N)C(=O)N[C@H](CCCNC(=N)N)C(=O)N[C@H](CCCNC(=N)N)C(=O)N[C@H](CCCNC(=N)N)C(=O)N[C@H](CCCNC(=N)N)C(N)=O)C(C)C)C(C)C) [Compound 5]  35 µM
5. Ac-l{d-norLeucine}rsvrlrvGlrkrrrrrrr-NH2 (Ac-[dL][dNle][dR][dS][dV][dR][dL][dR][dV]G[dL][dR][dK][dR][dR][dR][dR][dR][dR][dR]-NH2; SMILES CCCC[C@@H](NC(=O)[C@@H](CC(C)C)NC(C)=O)C(=O)N[C@H](CCCNC(=N)N)C(=O)N[C@H](CO)C(=O)N[C@@H](C(=O)N[C@H](CCCNC(=N)N)C(=O)N[C@H](CC(C)C)C(=O)N[C@H](CCCNC(=N)N)C(=O)N[C@@H](C(=O)NCC(=O)N[C@H](CC(C)C)C(=O)N[C@H](CCCNC(=N)N)C(=O)N[C@H](CCCCN)C(=O)N[C@H](CCCNC(=N)N)C(=O)N[C@H](CCCNC(=N)N)C(=O)N[C@H](CCCNC(=N)N)C(=O)N[C@H](CCCNC(=N)N)C(=O)N[C@H](CCCNC(=N)N)C(=O)N[C@H](CCCNC(=N)N)C(=O)N[C@H](CCCNC(=N)N)C(N)=O)C(C)C)C(C)C) [Compound 9]  20 µM
6. Ac-l{d-norLeucine}rGvrlrvGlrkrrrrrGΦ-NH2 (Ac-[dL][dNle][dR]G[dV][dR][dL][dR][dV]G[dL][dR][dK][dR][dR][dR][dR][dR]G[2Nal]-NH2; SMILES CCCC[C@@H](NC(=O)[C@@H](CC(C)C)NC(C)=O)C(=O)N[C@H](CCCNC(=N)N)C(=O)NCC(=O)N[C@@H](C(=O)N[C@H](CCCNC(=N)N)C(=O)N[C@H](CC(C)C)C(=O)N[C@H](CCCNC(=N)N)C(=O)N[C@@H](C(=O)NCC(=O)N[C@H](CC(C)C)C(=O)N[C@H](CCCNC(=N)N)C(=O)N[C@H](CCCCN)C(=O)N[C@H](CCCNC(=N)N)C(=O)N[C@H](CCCNC(=N)N)C(=O)N[C@H](CCCNC(=N)N)C(=O)N[C@H](CCCNC(=N)N)C(=O)N[C@H](CCCNC(=N)N)C(=O)NCC(=O)N[C@@H](Cc1ccc2ccccc2c1)C(N)=O)C(C)C)C(C)C) [Compound 12]  17 µM
7. Ac-l{d-norLeucine}rGvrlrvGlrkrrrrrrr-NH2 (Ac-[dL][dNle][dR]G[dV][dR][dL][dR][dV]G[dL][dR][dK][dR][dR][dR][dR][dR][dR][dR]-NH2; SMILES CCCC[C@@H](NC(=O)[C@@H](CC(C)C)NC(C)=O)C(=O)N[C@H](CCCNC(=N)N)C(=O)NCC(=O)N[C@@H](C(=O)N[C@H](CCCNC(=N)N)C(=O)N[C@H](CC(C)C)C(=O)N[C@H](CCCNC(=N)N)C(=O)N[C@@H](C(=O)NCC(=O)N[C@H](CC(C)C)C(=O)N[C@H](CCCNC(=N)N)C(=O)N[C@H](CCCCN)C(=O)N[C@H](CCCNC(=N)N)C(=O)N[C@H](CCCNC(=N)N)C(=O)N[C@H](CCCNC(=N)N)C(=O)N[C@H](CCCNC(=N)N)C(=O)N[C@H](CCCNC(=N)N)C(=O)N[C@H](CCCNC(=N)N)C(=O)N[C@H](CCCNC(=N)N)C(N)=O)C(C)C)C(C)C) [Compound 10]  13 µM
8. Ac-lmrsvrlrvGlrkrrrrrrrk(C6_5FAM)-NH2 (Ac-[dL][dM][dR][dS][dV][dR][dL][dR][dV]G[dL][dR][dK][dR][dR][dR][dR][dR][dR][dR][dK](C6_5FAM)-NH2; SMILES CSCC[C@@H](NC(=O)[C@@H](CC(C)C)NC(C)=O)C(=O)N[C@H](CCCNC(=N)N)C(=O)N[C@H](CO)C(=O)N[C@@H](C(=O)N[C@H](CCCNC(=N)N)C(=O)N[C@H](CC(C)C)C(=O)N[C@H](CCCNC(=N)N)C(=O)N[C@@H](C(=O)NCC(=O)N[C@H](CC(C)C)C(=O)N[C@H](CCCNC(=N)N)C(=O)N[C@H](CCCCN)C(=O)N[C@H](CCCNC(=N)N)C(=O)N[C@H](CCCNC(=N)N)C(=O)N[C@H](CCCNC(=N)N)C(=O)N[C@H](CCCNC(=N)N)C(=O)N[C@H](CCCNC(=N)N)C(=O)N[C@H](CCCNC(=N)N)C(=O)N[C@H](CCCNC(=N)N)C(=O)N[C@H](CCCCNC(=O)CCCCCNC(=O)c1ccc2c(c1)C(=O)OC21c2ccc(O)cc2Oc2cc(O)ccc21)C(N)=O)C(C)C)C(C)C) [Compound 13]  10 µM
9. Ac-l{d-norLeucine}rGvrlrvGlrkrrrrGy-NH2 (Ac-[dL][dNle][dR]G[dV][dR][dL][dR][dV]G[dL][dR][dK][dR][dR][dR][dR]G[dY]-NH2; SMILES CCCC[C@@H](NC(=O)[C@@H](CC(C)C)NC(C)=O)C(=O)N[C@H](CCCNC(=N)N)C(=O)NCC(=O)N[C@@H](C(=O)N[C@H](CCCNC(=N)N)C(=O)N[C@H](CC(C)C)C(=O)N[C@H](CCCNC(=N)N)C(=O)N[C@@H](C(=O)NCC(=O)N[C@H](CC(C)C)C(=O)N[C@H](CCCNC(=N)N)C(=O)N[C@H](CCCCN)C(=O)N[C@H](CCCNC(=N)N)C(=O)N[C@H](CCCNC(=N)N)C(=O)N[C@H](CCCNC(=N)N)C(=O)N[C@H](CCCNC(=N)N)C(=O)NCC(=O)N[C@H](Cc1ccc(O)cc1)C(N)=O)C(C)C)C(C)C) [Compound 11]  9 µM
10. Ac-lmrsvrlrvGlrkaG: : : (cFΦR4) (Ac-[dL][dM][dR][dS][dV][dR][dL][dR][dV]G[dL][dR][dK][dA]GF[2Nal]RRRRQ; not fully specified (bridges); printed as Ac-lmrsvrlrvGlrkaG: : : (cFΦR4); also: core joined by ':::' to cyclo(FΦRRRRQ), junction not defined) [Compound 3]  7.3 µM
